Reference: patent US11512111B2, “Yeats inhibitors and methods of use thereof” (The University of Hong Kong, priority 2017, dated 2022)
Residues, ends and D or L forms follow the SMILES beside them. *: point of attachment. Oxazole(5-CO) = O=C(c1cnco1)*

Columns and labels:
AF9 YEATS domain [1] = target: T1, AF9 YEATS domain (Homo sapiens, UniProt P42568); test: Photo-cross-linking-based competition assay (photoaffinity probe, click chemistry, in-gel fluorescence); type: binding; details: for IC50: competition with photoaffinity probe, in-gel fluorescence
T1 construct: His-AF9 (1-138); His (N); made in house; host or cells: E. coli Rosetta
T1 sequence (P42568 1-138): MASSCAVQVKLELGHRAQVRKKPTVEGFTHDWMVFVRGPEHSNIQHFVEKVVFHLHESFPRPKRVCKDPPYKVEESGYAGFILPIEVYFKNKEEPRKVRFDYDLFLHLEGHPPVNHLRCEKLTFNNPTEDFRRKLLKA
Protocol: Mobile phase used were water with 0.1% trifluoroacetic acid (buffer A) and 90% acetonitrile in water with 0.1% trifluoroacetic acid (buffer B). The purity (>95%) and identity of peptides were confirmed by LC-MS. The inhibitory activities of the inhibitors were determined by a photo-cross-linking-based competition assay. […] The reactions were incubated for 1 h at r.t . . . . The reactions were quenched by adding 5 volumes of ice-cold acetone and placed at −20° C. overnight to precipitate proteins. After protein precipitation, samples were centrifuged at 6000×g for 5 min at 4° C. The supernatant was discarded and the pellet was washed with ice-cooled methanol twice and air-dried for 10 min. […] Samples were then resolved by SDS-PAGE. The labeled proteins were visualized by scanning the gel on a Typhoon 9410 variable mode imager (excitation 532 nm, emission filter 580 nm). A photo-cross-linking based method was used in this study to estimate inhibitory activity (FIG. 28). This method requires the use of a photoaffinity probe. The probe (probe 1 (SEQ ID NO:48), see below) is derived from a crotonylated peptide, ligand of the protein, carrying a photo-cross-linker and a terminal alkyne as bioorthogonal. The YEATS domain is incubated and bound to the probe through Kcr-dependent recognition. Upon UV-irradiation, the photo-cross-linker is activated and rapidly cross-linked to the protein, converting the non-covalent protein-probe interaction into a covalent linkage. The probe-labeled protein is subsequently conjugated to an azide-functionalized fluorescence dye (for example, rhodamine-N3, Rho-N3) via Cu(I)-catalyzed azide-alkyne cycloaddition (CuAAC, or “click” chemistry). After SDS-PAGE, the protein can be visualized by in-gel fluorescence scanning. If photo-cross-linking of the YEATS domain with photoaffinity probe is performed in the presence of an inhibitor, which occupies the Kcr binding pocket of the YEATS domain and thus inhibits the protein-probe interaction, the percentage of the YEATS domain in the sample that is labeled by the probe will be reduced. The in-gel fluorescence intensity detected will also be decreased. By varying the concentration of inhibitor added in the sample and quantifying the resulting fluorescence intensities, a competition curve of the inhibitor toward the protein-probe interaction will be obtained, which can be used to estimate the IC50 value. Due to the covalent nature of photo-cross-linking, weak protein-protein interactions can be captured and eventually visualized. The protein concentration used in the assay can be as low as several nanograms per microliter, while the fluorescence signal can still be robustly detected and quantified.

GAS41 YEATS domain = target: T2, GAS41 YEATS domain (Homo sapiens, UniProt O95619); test: Photo-cross-linking-based competition assay; type: binding; details: competition with photoaffinity probe, in-gel fluorescence
T2 construct: His-Gas41 (15-159); His (N); made in house; host or cells: E. coli Rosetta
T2 sequence (O95619 15-159): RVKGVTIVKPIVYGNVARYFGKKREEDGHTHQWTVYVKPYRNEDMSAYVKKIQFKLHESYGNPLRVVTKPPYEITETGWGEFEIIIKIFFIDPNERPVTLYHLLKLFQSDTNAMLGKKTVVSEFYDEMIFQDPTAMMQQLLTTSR
Protocol: (§1) Peptides were synthesized on a Rink-Amide MBHA resin followed by a standard Fmoc-based solid-phase peptide synthesis protocol. After all amino acids were coupled, protecting groups and cleavage of peptides from the resin were done by incubating the resin with a cleavage cocktail containing 95% trifluoroacetic acid, 2.5% triisopropylsilane, 1.5% H2O and, 1% thioanisole for 2 h. Peptides were purified by preparative HPLC with an XBridge Prep OBDTM C18 column (30 mm×250 mm, 10 μm, Waters). Mobile phase used were water with 0.1% trifluoroacetic acid (buffer A) and 90% acetonitrile in water with 0.1% trifluoroacetic acid (buffer B). The purity (>95%) and identity of peptides were confirmed by LC-MS. The inhibitory activities of the inhibitors were determined by a photo-cross-linking-based competition assay.
(§2) The probe 4.1 or 4.2 (2 μM) with indicated concentrations of different inhibitors was incubated with YEATS domain proteins (5 or 20 ng/μL) in binding buffer (50 mM HEPES, 150 mM NaCl, 2 mM MgCl2, 0.1% Tween-20, 20% glycerol, pH 7.5, with or without 50 ng/μL BSA) for 10 min at 4° C. Then, the samples were irradiated at 365 nm using a UV lamp for 20 min in a 96-well plate on ice.
(§3) To the prepared photo-cross-linking samples, 100 μM Rho-N3 (10 mM stock in DMSO) was added, followed by 1 mM TCEP (freshly prepared 50 mM stock in H2O), 100 μM TBTA (10 mM stock in DMSO), and finally the reactions were initiated by the addition of 1 mM CuSO4 (freshly prepared 50 mM stock in H2O). The reactions were incubated for 1 h at r.t . . . . The reactions were quenched by adding 5 volumes of ice-cold acetone and placed at −20° C. overnight to precipitate proteins.
(§4) After protein precipitation, samples were centrifuged at 6000×g for 5 min at 4° C. The supernatant was discarded and the pellet was washed with ice-cooled methanol twice and air-dried for 10 min. The proteins were resuspended in 1×LDS sample loading buffer (Invitrogen) with 50 mM DTT, and heated at 80° C. for 8 min. Samples were then resolved by SDS-PAGE. The labeled proteins were visualized by scanning the gel on a Typhoon 9410 variable mode imager (excitation 532 nm, emission filter 580 nm).
(§5) A photo-cross-linking based method was used in this study to estimate inhibitory activity (FIG. 28). This method requires the use of a photoaffinity probe. The probe (probe 1 (SEQ ID NO:48), see below) is derived from a crotonylated peptide, ligand of the protein, carrying a photo-cross-linker and a terminal alkyne as bioorthogonal.
(§6) The YEATS domain is incubated and bound to the probe through Kcr-dependent recognition. Upon UV-irradiation, the photo-cross-linker is activated and rapidly cross-linked to the protein, converting the non-covalent protein-probe interaction into a covalent linkage. The probe-labeled protein is subsequently conjugated to an azide-functionalized fluorescence dye (for example, rhodamine-N3, Rho-N3) via Cu(I)-catalyzed azide-alkyne cycloaddition (CuAAC, or “click” chemistry). After SDS-PAGE, the protein can be visualized by in-gel fluorescence scanning. If photo-cross-linking of the YEATS domain with photoaffinity probe is performed in the presence of an inhibitor, which occupies the Kcr binding pocket of the YEATS domain and thus inhibits the protein-probe interaction, the percentage of the YEATS domain in the sample that is labeled by the probe will be reduced. The in-gel fluorescence intensity detected will also be decreased. By varying the concentration of inhibitor added in the sample and quantifying the resulting fluorescence intensities, a competition curve of the inhibitor toward the protein-probe interaction will be obtained, which can be used to estimate the IC50 value. Due to the covalent nature of photo-cross-linking, weak protein-protein interactions can be captured and eventually visualized. The protein concentration used in the assay can be as low as several nanograms per microliter, while the fluorescence signal can still be robustly detected and quantified. […]

YEATS2 domain = target: T3, YEATS2 domain (Homo sapiens, UniProt Q9ULM3); test: Photo-cross-linking-based competition assay; type: binding; details: competition with photoaffinity probe, in-gel fluorescence
T3 construct: His-SUMO-YEATS2 (201-332); His (N); SUMO (N); made in house; host or cells: E. coli Rosetta
T3 sequence (Q9ULM3 201-332): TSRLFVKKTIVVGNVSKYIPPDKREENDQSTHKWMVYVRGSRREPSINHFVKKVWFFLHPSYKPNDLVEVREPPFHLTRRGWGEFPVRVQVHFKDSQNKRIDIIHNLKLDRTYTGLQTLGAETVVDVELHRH
Protocol: as §1, §2, §3, §4, §5, §6

ENL YEATS domain [2] = target: T4, ENL YEATS domain (Homo sapiens, UniProt Q03111); test: Photo-cross-linking-based competition assay; type: binding; details: for IC50: competition with photoaffinity probe, in-gel fluorescence
T4 construct: His-SUMO-ENL (1-138); His (N); SUMO (N); made in house; host or cells: E. coli Rosetta
T4 sequence (Q03111 1-138): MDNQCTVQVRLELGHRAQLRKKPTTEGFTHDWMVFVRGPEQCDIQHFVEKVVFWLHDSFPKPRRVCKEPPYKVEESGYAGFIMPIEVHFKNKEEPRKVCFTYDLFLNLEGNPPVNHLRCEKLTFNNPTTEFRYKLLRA

AF9 YEATS domain [3] = target: T1, AF9 YEATS domain; test: Isothermal titration calorimetry (ITC); type: binding; details: ITC
Protocol: (§7) ^1H and ^13C NMR spectra were recorded on Bruker UltraShield 400 or 600 MHz spectrometers and were calibrated using residual undeuterated solvent as an internal reference. Chemical shifts were reported in ppm, and coupling constant J was reported in Hz. Peptides were analyzed by LC-MS with an Agilent 1260 Infinity HPLC system connected to a Thermo Finnigan LCQ DecaXP MS detector. Peptides were purified on a preparative HPLC system with Waters 2535 Quaternary Gradient Module, Waters 515 HPLC pump, Waters SFO System Fluidics Organizer, and Waters 2767 Sample Manager. Photo-cross-linking was performed with an ENF-260C/FE hand-hang UV lamp (Spectroline). In-gel fluorescence scanning was performed using a Typhoon 9410 variable mode imager from GE Healthcare Life Sciences (excitation 532 nm, emission 580 nm). Images of Coomassie blue staining were acquired by MyECL Imager from Thermo Scientific. All images were processed by ImageJ software (National Institutes of Health), and contrast was adjusted appropriately. ITC experiments were performed with a MicroCal iTC200 titration calorimeter (MicroCal). IC50 and dissociation constants were fit with Origin 7.0 software package (OriginLab).
To further validate the reliability of the results obtained from the photo-cross-linking-based competition assay, we performed isothermal titration calorimetry (ITC) to determine the direct binding affinities of the inhibitors toward the AF9 YEATS domain. […] The ITC measurements were in agreement with the IC50 data, indicating the reliability of the results obtained from the photo-cross-linking-based competition assay.

ENL YEATS domain [4] = target: T4, ENL YEATS domain; test: Isothermal titration calorimetry (ITC); type: binding
Protocol: as §7
The compound Cyclic 3 was also tested with AF9 and ENL YEATS domains.

ENL = target: T5, ENL (Homo sapiens, UniProt Q03111); test: Cellular thermal shift assay (CETSA) in MOLM-13 (FLAG-ENL) cells; type: cell-based; details: MOLM13 (FLAG-ENL), 50 μM, 16 hours, anti-FLAG
T5 construct: expressed in transfected cells; host or cells: MOLM-13 (FLAG-ENL) cells
T5 sequence (Q03111 1-559): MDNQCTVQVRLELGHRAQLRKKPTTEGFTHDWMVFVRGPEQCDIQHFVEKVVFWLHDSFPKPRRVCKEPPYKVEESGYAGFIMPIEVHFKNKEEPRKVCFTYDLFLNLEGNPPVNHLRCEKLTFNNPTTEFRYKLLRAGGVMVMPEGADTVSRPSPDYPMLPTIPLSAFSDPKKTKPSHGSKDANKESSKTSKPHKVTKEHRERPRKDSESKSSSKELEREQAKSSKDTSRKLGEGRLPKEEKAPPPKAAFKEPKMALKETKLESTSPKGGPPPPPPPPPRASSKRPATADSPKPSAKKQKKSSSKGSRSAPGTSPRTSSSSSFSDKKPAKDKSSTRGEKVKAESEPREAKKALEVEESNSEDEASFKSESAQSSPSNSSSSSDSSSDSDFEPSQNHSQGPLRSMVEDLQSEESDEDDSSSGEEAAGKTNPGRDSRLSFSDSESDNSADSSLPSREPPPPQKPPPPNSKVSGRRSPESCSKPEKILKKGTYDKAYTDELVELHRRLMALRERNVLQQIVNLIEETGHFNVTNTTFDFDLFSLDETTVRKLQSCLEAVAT
Protocol: We next applied the cellular thermal shift assay (CETSA) to examine if XL-13m was cell permeable and could target ENL in living cells. MOLM-13 (FLAG-ENL) were treated with XL-13m for […] and then heated at different temperature to denature and precipitate proteins. […] Soluble proteins were extracted by freeze-thaw cycle and subjected to western blotting analysis.
MOLM13 (FLAG-ENL) cells were incubated with or without 50 μM compound for 16 hours and then were collected for cellular thermal shift assay (CETSA) as previously reported. Anti-FLAG antibody was used to detect ENL proteins and γ-actin blotting served as negative control.

| SMILES | IC50 (AF9 YEATS domain [1]) [µM] | IC50 (GAS41 YEATS domain) [µM] | IC50 (YEATS2 domain) [µM] | IC50 (ENL YEATS domain [2]) [µM] | activity drop on ENL compared to AF9 (ENL YEATS domain [2]; ratio of IC50 values) [fold] | Kd (AF9 YEATS domain [3]) [µM] | Kd (ENL YEATS domain [4]) [µM] | activity on AF9 weaker than on ENL (AF9 YEATS domain [1]; ratio of IC50 values) [fold] | thermal shift: targeting of ENL protein in living cells (ENL) |
| --- | --- | --- | --- | --- | --- | --- | --- | --- | --- |
| C[C@H](NC(=O)[C@@H](NC(=O)[C@H](CCC(N)=O)NC(=O)OCc1ccccc1)[C@@H](C)O)C(=O)N[C@@H](CCCNC(=N)N)C(=O)N[C@@H](CCCCNC(=O)c1cnco1)C(N)=O [Compound 27] | 0.24 | 14.5 | 98.7 |  |  |  |  |  |  |
| C[C@H](NC(=O)[C@@H](NC(=O)[C@H](CCC(N)=O)NC(=O)OCc1ccccc1)[C@@H](C)O)C(=O)N[C@@H](CCCNC(=N)N)C(=O)N[C@@H](CCCCNC(=O)c1ccco1)C(N)=O [Compound 26] | 0.26 | 123 | 42.4 | 1.3 | 5 |  |  |  |  |
| C[C@@H]1NC(=O)[C@H]([C@H](C)O)NC(=O)[C@@H](NC(=O)OCc2ccccc2)Cn2cc(nn2)CNC(=N)NCCC[C@H](C(=O)N[C@@H](CCCCNC(=O)c2cnco2)C(N)=O)NC1=O [Compound 82] | 5.1 |  |  | 9.23 |  |  |  |  |  |
| C[C@@H]1NC(=O)[C@H]([C@H](C)O)NC(=O)[C@@H](NC(=O)OCc2ccccc2)CCCCNC(=N)NCCC[C@H](C(=O)N[C@@H](CCCCNC(=O)c2cnco2)C(N)=O)NC1=O [Compound 80] |  | 53.7 | 22.7 | 12.9 |  | 0.52 | 11.4 |  |  |
| CC(=O)N[C@@H](C)C(=O)N[C@@H](C)C(=O)N[C@@H](CCCNC(=N)N)C(=O)N[C@@H](CCCCNC(=O)c1cnco1)C(N)=O [Compound 40] (Ac-AARK(Oxazole(5-CO))-NH2) |  |  |  |  |  |  |  | 6.1 | revealed the target of ENL protein |
